Measured values published in patent publication US20120196748A1, “PESTICIDAL COMPOSITION” (SYNGENTA LIMITED, priority 2009, published 2012).

Legend:
[1] = Soil mobility of herbicides, uptake by concentric PDMS rings; type: physicochemical; details: 7 days after application, sandy loam soil, moisture content 26.3%
Experimental: The soil mobility of various herbicides were examined in sandy loam soil with a moisture content of 26.3%. Three concentric PDMS (polydimethyl siloxane) rings having diameters of 2, 4 and 6 cm, respectively were placed in the soil at three different depths at 0.5 cm apart. 1 ml of a herbicide solution is injected in the center of the rings. The uptake of the herbicide by the rings were analysed 7 days after herbicide application.

weeds = experiment: Field weed control by clomazone-treated wheat seeds; type: in vivo; details: field at Möhlin, 64 days after planting
Experimental: Two different types of wheat seeds were used, i.e. Match and Steme. The treated wheat seeds were sown in the field (at Möhlin in Swtzerland). 64 days after planting the control of weeds was analysed.

[2] = uptake by PDMS ring of 2 cm diameter
[3] = uptake by PDMS ring of 4 cm diameter

Row | SMILES | Percentage of totally applied herbicide (%) [1, 2] [%] | Weed control (%) (weeds; wheat seed type Match) | Weed control (%) (weeds; wheat seed type Steme) | Percentage of totally applied herbicide (%) [1, 3] [%] | Percentage of totally applied herbicide (%) ([1]; uptake by PDMS ring of 6 cm diameter)
1 | CCOCN(C(=O)CCl)c1c(C)cccc1CC [Acetochlor] | 0.14 | – | – | – | –
2 | CC1(C)CON(Cc2ccccc2Cl)C1=O [Clomazone] | 0.36 | 95 | 95 | – | –
3 | CCCN(CCC)C(=O)SCC [EPTC] | 12.70 | – | – | 5.56 | 0.97
4 | CCc1cccc(C)c1N(C(=O)CCl)[C@@H](C)COC [S-metalochlor] | 0.11 | – | – | – | –
5 | CCCN(CCC)c1c([N+](=O)[O-])cc(C(F)(F)F)cc1[N+](=O)[O-] [Trifluralin] | 0.62 | – | – | 0.02 | –
